PMC8348110, “A Novel Peptide Derived from the Transmembrane Domain of Romo1 Is a Promising Candidate for Sepsis Treatment and Multidrug-Resistant Bacteria” (International Journal of Molecular Sciences, 2021)
Values after ≈ are worked out from the molar mass of the structure shown. Residues, ends and D or L forms follow the SMILES beside them.

Tests used:
[1] = test system: human embryotic kidney (HEK) 293 cells; format: cell-based
Method: (§1) Mammalian cell viability was measured using a 3-(4,5-dimethylthiazol-2-yl)-2,5-diphenyltetrazolium bromide (MTT) assay in HeLa and HEK 293 cells. Cells were cultured on 96-well plates and incubated separately with AMPR-11, AMPR-21, AMPR-22, magainin 2, or daptomycin. After incubation for an hour, the cells were incubated with MTT solution (2 mg/mL of MTT in PBS) for an hour, and the media were removed, and dimethyl sulfoxide was added to allow the MTT formazans to solubilize. The optical density was measured using a SpectraMax Plus 384 microplate reader (Molecular Devices, San Jose, CA, USA) at 550 nm.

[2] = test system: Carbapenem-resistant K. pneumoniae, clinical isolate; format: cell-based, Klebsiella pneumoniae; conditions: 1 h
Text: (§2) Acinetobacter baumannii (ATCC 19606), B. subtilis (ATCC 6633), E. aerogenes (ATCC 13048), E. coli (ATCC 25922), E. faecalis (ATCC 19433), E. faecium (ATCC 19434), K. pneumoniae (ATCC 13883), P. aeruginosa (ATCC 27853), S. aureus (ATCC 29213), S. sindenensis (ATCC 23963), and MRSA (ATCC 33591) were purchased from the American Type Culture Collection (ATCC; Gaithersburg, MD, USA). Streptococcus pneumoniae (NCCP 14585), vancomycin-resistant E. faecium (NCCP 11522), and vancomycin-resistant S. aureus (NCCP 15872) were purchased from the National Culture Collection for Pathogens (NCCP; Cheongju, Korea). The isolation and use of carbapenem-resistant bacterial strains from a patient were approved (2015AN0129) by the Institutional Review Board (IRB) of Korea University Hospital. […]
(§3) The minimum bactericidal concentration (MBC) was determined as previously described with minor modifications. […] The value of MBC was determined at the lowest concentrations at which no colonies were identified.
(§4) We used the CFU counting method to measure antibacterial activity, with all bacteria cultured to the mid-log phase in an appropriate broth medium. Bacterial CFUs were counted after overnight culture at 37 °C on TS or LB agar plates. The MBC value and antibacterial activity in blood components were determined as previously described. […]

[3] = test system: Bacillus subtilis ATCC 6633; test: Modified MBC determination; format: cell-based; conditions: Table 2
Method: (§5) The minimum bactericidal concentration (MBC) was determined as previously described with minor modifications. Briefly, bacteria were cultured in the mid-log phase and diluted to 5 × 10^5 colony-forming unit (CFU)/mL in 10 mM sodium phosphate buffer (pH 7.4) with a 1% volume of TS broth. They were incubated for 1 h with various peptides which were two-fold diluted serially from 64 μg/mL to 0 μg/mL concentrations in a 96-well plate. The samples were inoculated TS agar plate and incubated overnight at 37 °C. The value of MBC was determined at the lowest concentrations at which no colonies were identified.
(§6) We used the CFU counting method to measure antibacterial activity, with all bacteria cultured to the mid-log phase in an appropriate broth medium. Bacterial CFUs were counted after overnight culture at 37 °C on TS or LB agar plates. The MBC value and antibacterial activity in blood components were determined as previously described. Mouse and human whole blood were collected and diluted with PBS (pH 7.4) to measure the ex vivo antibacterial activity of AMPR-22. For that test, AMPR-22 (10 μg) was added to each whole blood solution and incubated at 37 °C with shaking at 200 rpm. At each time point, it was incubated with bacteria (1 × 10^3 CFU) for 30 min. Each sample was inoculated on an LB agar plate, and CFU counting was performed. To measure the in vivo activity of AMPR-22, 1 × 10^8 CFU of bacteria were injected into BALB/c mice, and an hour later, 10 mg/kg of the test peptides were injected. Blood samples were collected by tail cut, serially diluted with PBS (pH 7.4), and inoculated on LB-agar plates, followed by CFU counting. To estimate the functional half-life of AMPR-22, 40 mg/kg of each tested peptide were injected into mice. Whole blood sampling was performed by cardiac puncture, and the plasma was isolated by centrifugation (2000× g, 15 min). The isolated plasma was incubated with bacteria (1 × 10^3 CFU) for an hour, and then the CFU counting method was performed.

[4] = test system: Enterococcus faecalis ATCC 19433; test: Modified MBC determination; format: cell-based; conditions: Table 2
Method: as §5, §6

[5] = test system: Enterococcus faecium ATCC 19434; test: Modified MBC determination; format: cell-based; conditions: Table 2
Method: as §5, §6

[6] = test system: Klebsiella pneumoniae ATCC 13883; test: Modified MBC determination; format: cell-based; conditions: Table 2
Method: as §5, §6

[7] = test system: Streptomyces sindenensis ATCC 23963; test: Modified MBC determination; format: cell-based; conditions: Table 2
Method: as §5, §6

[8] = test system: Escherichia coli ATCC 25922; test: Modified MBC determination; format: cell-based; conditions: Table 2
Method: as §5, §6

[9] = test system: Enterobacter aerogenes ATCC 13048; test: Modified MBC determination; format: cell-based; conditions: Table 2
Method: as §5, §6

[10] = test system: Acinetobacter baumannii ATCC 19606; test: Modified MBC determination; format: cell-based; conditions: Table 2
Method: as §5, §6

[11] = test system: HeLa cells; format: cell-based, human
Method: as §1

[12] = test system: Streptococcus pneumoniae NCCP 14585; format: cell-based; conditions: NCCP 14585, 1 h
How it was run: (§7)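 Steps: grow cells to mid-log; dilute to 5 × 10^5 CFU/mL in 10 mM sodium phosphate, pH 7.4, with 1% TS broth; add peptide (two-fold dilutions starting at 64 μg/mL) for 1 h; spread onto TS agar, 37 °C overnight; score the lowest colony-free concentration.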

[13] = test system: Staphylococcus aureus ATCC 29213; format: cell-based
How it was run: as §7

[14] = test system: Pseudomonas aeruginosa ATCC 27853; format: cell-based
How it was run: as §7

[15] = test system: Vancomycin-resistant S. aureus NCCP 15872; format: cell-based, Staphylococcus aureus; conditions: Vancomycin-resistant NCCP 15872, 1 h
How it was run: as §7

[16] = test system: Methicillin-resistant S. aureus (MRSA) ATCC 33591; format: cell-based, Staphylococcus aureus
How it was run: as §7

[17] = test system: Carbapenem-resistant A. baumannii, clinical isolate; format: cell-based, Acinetobacter baumannii; conditions: 1 h
Text: as §2, §3, §4

CC[C@H](C)[C@H](NC(=O)CNC(=O)CNC(=O)[C@@H](NC(=O)[C@H](C)NC(=O)[C@H](CCSC)NC(=O)[C@H](Cc1ccccc1)NC(=O)[C@@H](NC(=O)CNC(=O)[C@H](Cc1ccccc1)NC(=O)[C@H](CCCCN)NC(=O)CNC(=O)CNC(=O)[C@H](CCCCN)NC(=O)[C@H](CCCCN)NC(=O)[C@H](CCSC)NC(=O)[C@H](CCSC)NC(=O)[C@H](CCCCN)NC(=O)[C@@H](N)CCCCN)[C@@H](C)O)[C@@H](C)CC)C(=O)N[C@@H](CCCNC(=N)N)C(=O)O [AMPR-22] (H-KKMMKKGGKFGTFMAIGGIR-OH)
Cytotoxicity, HEK 293 cells [1]: slight cytotoxicity | MBC Value, Carbapenem-resistant K. pneumoniae [2]: 4 µg/mL (≈ 1.83 µM) | MBC Value, Bacillus subtilis [3]: 1 µg/mL (≈ 0.457 µM) | MBC Value, Enterococcus faecalis [4]: 4 µg/mL (≈ 1.83 µM) | MBC Value, Enterococcus faecium [5]: 4 µg/mL (≈ 1.83 µM) | MBC Value, Klebsiella pneumoniae [6]: 1 µg/mL (≈ 0.457 µM) | MBC Value, Streptomyces sindenensis [7]: 2 µg/mL (≈ 0.915 µM) | MBC Value, Escherichia coli [8]: 1 µg/mL (≈ 0.457 µM) | MBC Value, Enterobacter aerogenes [9]: 2 µg/mL (≈ 0.915 µM) | MBC Value, Acinetobacter baumannii [10]: 1 µg/mL (≈ 0.457 µM) | Cytotoxicity, HeLa cells [11]: slight cytotoxicity | MBC Value, Streptococcus pneumoniae [12]: 4 µg/mL (≈ 1.83 µM) | MBC Value, S. aureus ([13]; ATCC 29213, 1 h, pH 7.4): 2 µg/mL (≈ 0.915 µM) | MBC Value, Staphylococcus aureus ([13]; Table 2, ATCC 29213, modified MBC): 2 µg/mL (≈ 0.915 µM) | MBC Value, P. aeruginosa ([14]; ATCC 27853, 1 h): 2 µg/mL (≈ 0.915 µM) | MBC Value, Pseudomonas aeruginosa ([14]; Table 2, ATCC 27853, modified MBC): 2 µg/mL (≈ 0.915 µM) | MBC Value, Vancomycin-resistant S. aureus [15]: 4 µg/mL (≈ 1.83 µM) | MBC Value, MRSA ([16]; ATCC 33591, 1 h): 2 µg/mL (≈ 0.915 µM) | MBC Value, Methicillin-resistant S. aureus ([16]; Table 2, ATCC 33591, modified MBC): 2 µg/mL (≈ 0.915 µM) | MBC Value, Carbapenem-resistant A. baumannii [17]: 1 µg/mL (≈ 0.457 µM)
